According to US20260124201A1, “CYCLOPENTANE COMPOUND” (Kissei Pharmaceutical Co., Ltd., priority 2022, published 2026):

Assays:
human OX2R = target: T1, human OX2R (Homo sapiens, UniProt O43614); assay: Measurement of OX2R agonist activity (intracellular calcium concentration change, Fluo4-AM, FDSS 7000); assay type: cell-based; conditions: compound concentration 10 μM; human OX2R-expressing CHO-K1 cells; 1 μM human orexin A peptide = 100%, medium alone = 0%
T1 construct: expressed in transfected cells
T1 sequence (O43614 1-444): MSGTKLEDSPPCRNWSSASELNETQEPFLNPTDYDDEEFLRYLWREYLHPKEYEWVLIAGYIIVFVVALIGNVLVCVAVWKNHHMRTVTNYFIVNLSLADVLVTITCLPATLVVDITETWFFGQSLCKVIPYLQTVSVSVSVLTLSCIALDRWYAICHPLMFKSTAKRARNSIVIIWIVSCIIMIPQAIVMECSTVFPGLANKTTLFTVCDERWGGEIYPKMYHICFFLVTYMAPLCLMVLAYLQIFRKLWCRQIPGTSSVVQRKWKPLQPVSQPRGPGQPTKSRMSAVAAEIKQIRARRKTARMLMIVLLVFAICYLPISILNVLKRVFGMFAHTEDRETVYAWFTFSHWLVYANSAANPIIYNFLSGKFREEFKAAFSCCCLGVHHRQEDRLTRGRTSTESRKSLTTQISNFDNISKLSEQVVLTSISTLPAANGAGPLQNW
Outline: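 Stable human OX2R-expressing CHO-K1 cells, loaded 45 min at 37 °C with 1.14 μM Fluo4-AM plus probenecid in HEPES-buffered HBSS pH 7.4; calcium fluorescence read by FDSS. Activation at 10 μM compound expressed relative to 1 μM human orexin A (100%) and medium alone (0%).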

wild-type mice = conditions: subcutaneous administration; cited from earlier work
NT1 patients = conditions: clinical study; cited from earlier work

For CCS(=O)(=O)N[C@@H]1C[C@@](Cc2ccc(Cl)c(-c3ncc(F)cn3)c2)(C(=O)N(C)OC)C[C@@H]1F [Example 63, (1R,3R,4S)-1-(4-Chloro-3-(5-fluoropyrimidin-2-yl)benzyl)-3-(ethylsulfonamido)-4-fluoro-N-methoxy-N-methylcyclopentane-1-carboxamide], the “Act. (%): activation rate of test substance” value (“Act. (%): activation rate” below) (human OX2R) was 96%.
In the case of CON(C)C(=O)[C@@]1(Cc2ccc(F)c(-c3ncc(F)cn3)c2)C[C@@H](F)[C@H](NS(C)(=O)=O)C1 [Example 64, (1R,3R,4R)-3-Fluoro-1-(4-fluoro-3-(5-fluoropyrimidin-2-yl)benzyl)-N-methoxy-N-methyl-4-(methylsulfonamido)cyclopentane-1-carboxamide], the “Act. (%): activation rate” value (human OX2R) is reported as 101%.
In the case of CON(C)C(=O)[C@]1(Cc2cccc(-c3ncccn3)c2)C[C@@H](NS(C)(=O)=O)C(F)(F)C1 [Example 65, (1R,4R)-3,3-Difluoro-N-methoxy-N-methyl-4-(methylsulfonamido)-1-(3-(pyrimidin-2-yl)benzyl)cyclopentane-1-carboxamide], the “Act. (%): activation rate” value (human OX2R) is reported as 86%.
In the case of CON(C)C(=O)[C@]1(Cc2cccc(-c3ncc(F)cn3)c2)C[C@@H](NS(C)(=O)=O)C(F)(F)C1 [Example 66, (1R,4R)-3,3-Difluoro-1-(3-(5-fluoropyrimidin-2-yl)benzyl)-N-methoxy-N-methyl-4-(methylsulfonamido)cyclopentane-1-carboxamide], the “Act. (%): activation rate” value (human OX2R) is reported as 95%.
For CO[C@H]1C[C@](Cc2cccc(-c3ncc(F)cn3)c2)(C(=O)N(C)OC)C[C@H]1NS(C)(=O)=O [Example 67, (1R,3S,4R)-1-(3-(5-Fluoropyrimidin-2-yl)benzyl)-N,3-dimethoxy-N-methyl-4-(methylsulfonamido)cyclopentane-1-carboxamide], the “Act. (%): activation rate” value (human OX2R) was 88%.
With CO[C@@H]1C[C@](Cc2cccc(-c3ncc(F)cn3)c2)(C(=O)N(C)OC)C[C@H]1NS(C)(=O)=O [Example 68] the “Act. (%): activation rate” value (human OX2R) was 91%.
In the case of COC(=O)N1CCC[C@H](NS(C)(=O)=O)[C@@H]1CO[C@H]1CC[C@@H](c2ccccc2)CC1 [TAK-925], the wake time (wild-type mice) is listed as “prolonging of wake time” and the “wakefulness and daytime sleepiness” value (NT1 patients) is listed as “maintaining wakefulness and reducing daytime sleepiness”.
